# Assay results reported in article PMC10712727, “Safety, Tolerability, and Pharmacokinetics of Senaparib, a Novel PARP1/2 Inhibitor, in Chinese Patients With Advanced Solid Tumors: A Phase I Trial” (The Oncologist, 2023).
# Assay: Plasma pharmacokinetics after single-dose administration (HPLC-MS/MS)
# Format: in vivo, human
# Procedure: Dose escalation was conducted using a modified Fibonacci 3 + 3 method (Supplementary Fig. […] At a given dose level, each patient received a single dose of senaparib followed by a 7-day washout period. They then entered a continuous dosing period to confirm the safety and PK profile, in which they received senaparib QD from day 1 to day 21 of each 3-week cycle. Progression to the next higher dose required approval from the Data Safety Monitoring Committee (DSMC) upon review of the safety and PK data of the previous dose. A 50-mg twice-daily (BID) dosing group was added (planned enrollment, n = 6 patients) based on a DSMC review of the safety, PK, and efficacy analysis of the completed QD dose groups in the phase I clinical trial of senaparib dose escalation in Australia (NCT03507543), which commenced prior to the start of this trial. Safety was assessed by recording the incidence of dose-limiting toxicities (DLTs), and the incidence, nature, severity (graded per National Cancer Institute Common Terminology Criteria for Adverse Events version 4.03 [NCI CTCAE v4.03][18]), and relatedness of treatment-emergent adverse events (TEAEs). DLTs were predefined toxicities (Supplementary Table S2) recorded over the 7 days following the single-dose administration of senaparib and during the first treatment cycle (day 1-day 21) for each dose group in the dose-escalation period only. […] Senaparib PK parameters were derived from blood samples collected from patients after the single administration, and at regular intervals during the first cycle of the dose-escalation and dose-expansion periods. Plasma concentrations of senaparib were determined using high-performance liquid chromatography-tandem mass spectrometry. […] There was no formal sample size calculation based on statistical hypothesis testing for this study; the planned enrolment was approximately 30-60 patients across the dose-escalation and dose-expansion cohorts. The actual number in the dose-escalation cohort was adjusted based on the number of dose cohorts required for the modified Fibonacci dose-escalation design and the determined MTD. Definitions for all analysis populations (safety, DLT, PK, and efficacy [intent-to-treat, ITT]) are provided in Supplementary Table S2. No statistical tests were performed; patient demographic and baseline characteristics, safety/tolerability, PK parameters, and efficacy were evaluated descriptively. ORR and DCR and their 95% CIs were calculated for each group using the exact probability method. Kaplan-Meier statistics were used to estimate DOR and PFS, and their 95% CIs for each dose group separately. Dose linearity was explored based on the single-dose data of area under the time-concentration curve (AUC) and maximum plasma concentration (Cmax) using the power model (Y = α × dose β) for the dose range 2-80 mg on a log-transformed scale. The following criterion was used to determine whether dose proportionality was met: if the (2-sided) 90% CI for β was wholly contained within the interval (1 + log(0.5)/log(r), 1 + log(2)/log(r)), then dose proportionality was supported. Here, r was defined as the ratio of the highest to lowest dose. All data analyses were carried out using SAS EG7.1 or higher or (for PK parameters) WinNonlin 7.0 or higher.
smiles,measurement,setting,value
O=C(c1cc(Cn2c(=O)[nH]c(=O)c3c(F)cccc32)ccc1F)N1CCN(c2ncccn2)CC1 [Senaparib],"Elimination half-life, range","human, in vivo",5.1 to 24.3 h
same,"Mean apparent clearance, range across dose groups","human, in vivo",1.0 to 6.3 L/h
same,"Mean volume of distribution, range across dose groups","human, in vivo",15.5 to 88.7 L
same,"Median time to Cmax, range across dose groups","human, in vivo",0.5 to 6.0 h
same,"AUC0-inf, mean±SD","human, in vivo, 2 mg",1754.1 ng·h/mL
same,"AUC0-t, mean±SD","human, in vivo, 2 mg",1462.4 ng·h/mL
same,"CL/F, mean±SD","human, in vivo, 2 mg",1.1 L/h
same,"Cmax, mean±SD","human, in vivo, 2 mg",177.0 ng/mL
same,"Tmax, median (range)","human, in vivo, 2 mg",1.0 (1.0-1.0) h
same,"Vd/F, mean±SD","human, in vivo, 2 mg",21.3 L
same,"t½, median (range)","human, in vivo, 2 mg",13.0 (13.0-13.0) h
same,"λz, mean±SD","human, in vivo, 2 mg",5.3 h⁻¹
same,"AUC0-inf, mean±SD","human, in vivo, 5 mg",4107.2 ± 2303.2 ng·h/mL
same,"AUC0-t, mean±SD","human, in vivo, 5 mg",3912.7 ± 2180.7 ng·h/mL
same,"CL/F, mean±SD","human, in vivo, 5 mg",1.5 ± 0.7 L/h
same,"Cmax, mean±SD","human, in vivo, 5 mg",378.7 ± 76.1 ng/mL
same,"Tmax, median (range)","human, in vivo, 5 mg",1.9 (1.9-2.0) h
same,"Vd/F, mean±SD","human, in vivo, 5 mg",15.5 ± 3.5 L
same,"t½, median (range)","human, in vivo, 5 mg",7.7 (5.8-10.8) h
same,"λz, mean±SD","human, in vivo, 5 mg",5.2 ± 4.6 h⁻¹
same,"AUC0-inf, mean±SD","human, in vivo, 10 mg",9954.7 ± 1274.9 ng·h/mL
same,"AUC0-t, mean±SD","human, in vivo, 10 mg",9053.7 ± 887.5 ng·h/mL
same,"CL/F, mean±SD","human, in vivo, 10 mg",1.0 ± 0.1 L/h
same,"Cmax, mean±SD","human, in vivo, 10 mg",606.7 ± 93.5 ng/mL
same,"Tmax, median (range)","human, in vivo, 10 mg",4.0 (2.0-4.0) h
same,"Vd/F, mean±SD","human, in vivo, 10 mg",19.6 ± 0.8 L
same,"t½, median (range)","human, in vivo, 10 mg",14.4 (11.0-15.2) h
same,"λz, mean±SD","human, in vivo, 10 mg",5.2 ± 0.9 h⁻¹
same,"AUC0-inf, mean±SD","human, in vivo, 20 mg",18 955.2±3835.6 h*ng/mL
same,"AUC0-t, mean±SD","human, in vivo, 20 mg",16 945.0±11 287.2 h*ng/mL
same,"CL/F, mean±SD","human, in vivo, 20 mg",1.7 ± 1.4 L/h
same,"Cmax, mean±SD","human, in vivo, 20 mg",1453.3 ± 408.1 ng/mL
same,"Tmax, median (range)","human, in vivo, 20 mg",1.9 (1.8-1.9) h
same,"Vd/F, mean±SD","human, in vivo, 20 mg",19.1 ± 4.5 L
same,"t½, median (range)","human, in vivo, 20 mg",11.2 (5.1-17.1) h
same,"λz, mean±SD","human, in vivo, 20 mg",3.5 ± 3.1 h⁻¹
same,"AUC0-inf, mean±SD","human, in vivo, 40 mg",16 904.8±4182.4 h*ng/mL
same,"AUC0-t, mean±SD","human, in vivo, 40 mg",16 428.2±3762.6 h*ng/mL
same,"CL/F, mean±SD","human, in vivo, 40 mg",2.5 ± 0.7 L/h
same,"Cmax, mean±SD","human, in vivo, 40 mg",1680.0 ± 148.0 ng/mL
same,"Tmax, median (range)","human, in vivo, 40 mg",1.8 (1.0-1.8) h
same,"Vd/F, mean±SD","human, in vivo, 40 mg",30.9 ± 2.6 L
same,"t½, median (range)","human, in vivo, 40 mg",9.3 (7.3-10.2) h
same,"λz, mean±SD","human, in vivo, 40 mg",7.9 ± 1.4 h⁻¹
same,"AUC0-inf, mean±SD","human, in vivo, 50 mg",35 588.9±27 788.9 h*ng/mL
same,"AUC0-t, mean±SD","human, in vivo, 50 mg",12 067.8±5895.4 h*ng/mL
same,"CL/F, mean±SD","human, in vivo, 50 mg",2.4 ± 2.0 L/h
same,"Cmax, mean±SD","human, in vivo, 50 mg",1560.0 ± 564.3 ng/mL
same,"Tmax, median (range)","human, in vivo, 50 mg",0.7 (0.5-3.5) h
same,"Vd/F, mean±SD","human, in vivo, 50 mg",36.4 ± 8.6 L
same,"t½, median (range)","human, in vivo, 50 mg",16.5 (5.7-24.3) h
same,"λz, mean±SD","human, in vivo, 50 mg",3.3 ± 2.9 h⁻¹
same,"AUC0-inf, mean±SD","human, in vivo, 60 mg",25 575.8±10 554.7 h*ng/mL
same,"AUC0-t, mean±SD","human, in vivo, 60 mg",24 929.7±9991.9 h*ng/mL
same,"CL/F, mean±SD","human, in vivo, 60 mg",2.6 ± 0.9 L/h
same,"Cmax, mean±SD","human, in vivo, 60 mg",2476.7 ± 342.7 ng/mL
same,"Tmax, median (range)","human, in vivo, 60 mg",2.0 (2.0-3.6) h
same,"Vd/F, mean±SD","human, in vivo, 60 mg",32.0 ± 8.8 L
same,"t½, median (range)","human, in vivo, 60 mg",8.5 (7.9-9.9) h
same,"λz, mean±SD","human, in vivo, 60 mg",8.0 ± 0.9 h⁻¹
same,"AUC0-inf, mean±SD","human, in vivo, 80 mg",76 255.9±33 943.0 h*ng/mL
same,"AUC0-t, mean±SD","human, in vivo, 80 mg",62 385.0±22 693.1 h*ng/mL
same,"CL/F, mean±SD","human, in vivo, 80 mg",1.2 ± 0.6 L/h
same,"Cmax, mean±SD","human, in vivo, 80 mg",3860.0 ± 1475.0 ng/mL
same,"Tmax, median (range)","human, in vivo, 80 mg",2.0 (2.0-2.0) h
same,"Vd/F, mean±SD","human, in vivo, 80 mg",30.6 ± 14.5 L
same,"t½, median (range)","human, in vivo, 80 mg",17.0 (13.3-23.7) h
same,"λz, mean±SD","human, in vivo, 80 mg",4.1 ± 1.1 h⁻¹
same,"AUC0-inf, mean±SD","human, in vivo, 100 mg",40 487.6±20 226.7 h*ng/mL
same,"AUC0-t, mean±SD","human, in vivo, 100 mg",38 505.2±18 191.9 h*ng/mL
same,"CL/F, mean±SD","human, in vivo, 100 mg",3.1 ± 1.6 L/h
same,"Cmax, mean±SD","human, in vivo, 100 mg",3425.0 ± 1516.1 ng/mL
same,"Tmax, median (range)","human, in vivo, 100 mg",2.0 (1.0-4.0) h
same,"Vd/F, mean±SD","human, in vivo, 100 mg",39.6 ± 1.1 L
same,"t½, median (range)","human, in vivo, 100 mg",10.4 (6.6-12.9) h
same,"λz, mean±SD","human, in vivo, 100 mg",5.7 ± 3.3 h⁻¹
same,"AUC0-inf, mean±SD","human, in vivo, 120 mg",68 650.9±89 085.5 h*ng/mL
same,"AUC0-t, mean±SD","human, in vivo, 120 mg",55 962.4±66 684.5 h*ng/mL
same,"CL/F, mean±SD","human, in vivo, 120 mg",6.3 ± 5.8 L/h
same,"Cmax, mean±SD","human, in vivo, 120 mg",3348.3 ± 2828.8 ng/mL
same,"Tmax, median (range)","human, in vivo, 120 mg",1.9 (1.8-6.0) h
same,"Vd/F, mean±SD","human, in vivo, 120 mg",88.7 ± 86.2 L
same,"t½, median (range)","human, in vivo, 120 mg",11.3 (6.3-23.8) h
same,"λz, mean±SD","human, in vivo, 120 mg",3.8 ± 2.9 h⁻¹
same,Senaparib exposure (Cmax and AUC) versus dose,"single dose, 80-120 mg",appeared to plateau
